# Assay results from patent US20250108070A1, “METHOD FOR REPROGRAMMING CD8+ T CELLS TO ENHANCE THEIR THERAPEUTIC POTENTIAL AND APPLICATIONS THEREOF” (INSTITUT PASTEUR, priority 2022, published 2025).
# Counter-ions that a name gives are not always drawn. Like-named read-outs stand apart in the source and are kept apart here.
# How the values were obtained:
# [1] = test system: mTORC1 and mTORC2 pathways; assay: Screening of GSK3 inhibitors: phospho-S6 / phospho-AKT staining (activation of mTORC1 and mTORC2 pathways); type: cell-based, human; details: for frequency of pS6+pAKT+ cells / activation of mTORC pathway: FIG. 12A, in words; for Fold change in pS6+pAKT+cells (relative to DMSO): 12 hs at optimal dose, washout, 48 hs anti-CD3/anti-CD28, symbols not defined
# Protocol: (§1) FIG. 12. Screening molecules for reprogramming human CD8^+ T cells Total CD8^+ T cells were purified and treated for 12 hs with titrated doses of GSK3 inhibitors or DMSO vehicle control. After drug washout, cells were stimulated for 48 hs with plate-bound anti-CD3/anti-CD28 antibodies (at 1 mg/mL), followed by flow cytometry analyses. A. Upon stimulation, intracellular cytokine and phospho-protein staining was performed, the latter for the detection of phospho-S6 and phospho-AKT proteins (indicative of activation of mTORC1 and mTORC2 pathways, respectively). The fold change in the frequency of IFN-γ^+TNF-α^+ and pS6^+pAKT^+ cells induced by the treatment with each GSK3 inhibitor, relative to DMSO control, was analyzed. […] B. Fold change in the expression of the indicated markers and memory phenotypes induced by anti-CD3/anti-CD28 antibody stimulation relative to unstimulated cells (at least 3 donors per condition). TCM: T central memory; TEM: T effector memory; TTM: T transitional memory; TTE: T terminal effector; TSCM: T stem cell memory.
# (§2) For reprogramming of CD8^+ T cells followed by polyclonal stimulation, cells were isolated by negative magnetic bead sorting (Stemcell Technologies). For reprogramming of CD8^+ T cells followed by antigen-specific stimulation, PBMC and magnetically separated CD8^+ T cells and non-CD8^+ T cells were used (REAlease® CD8 MicroBead Kit; Miltenyi Biotech). Then, CD8^+ T cells were treated with a GSK3 inhibitor (6-Bromoindirubin-3′-oxime; BIO; Sigma-Aldrich), at 3 μM, or an equivalent concentration of dimethyl sulfoxide (DMSO) vehicle control, in complete medium, for 12 hs at 37° C., 5% CO2. Non-CD8 cells were left resting during this time in complete medium. CD8^+ T cells were washed with complete medium and stimulated with the peptide pool in presence of non-CD8 T cells.
# (§3) In some experiments, cells were culture in RPMI medium without glucose (MP Biomedicals). CD8^+ T cell proliferation was evaluated by CFSE dilution (at 1 μM, Thermo Fisher Scientific). In additional experiments, reprogrammed CD8^+ T cells were stimulated with IL-7 or IL-15 (both at 10 ng/mL; R&D) and cultured for 6 days. In all the cases, cells were cultured at a density of 2×10^6 cells/mL.
# (§4) After cultures, cells were stained with the LIVE/DEAD Fixable Aqua Dead Cell Stain kit (Thermo Fisher Scientific), with anti-CD3 Alexa Fluor 700 or APC efluor 780 and anti-CD8 PE Texas Red antibodies, accordingly. […] In some experiments, cells were stained with APC-conjugated dextramers (Immudex), incubated for 15 minutes at room temperature. Additional surface staining panels included anti-HLA-DR Superbright 780, anti-CD38 Superbright 600, anti-PD-1 BV421, anti-LAG-3 APC efluor 780, anti-TIM3 PE Cy7, and anti-TIGIT BV786 antibodies, or anti-CD122 PE and anti-CD215 FITC antibodies. The BD Transcription Factor Buffer Set kit (BD Biosciences) was used for cell fixation and permeabilization. […] Cell acquisition was performed using LSR II or ARIA III flow cytometers (both from BD Biosciences), and data were analyzed with FlowJo v.10 software (BD Biosciences).
# (§5) The inventors explored GSK3 inhibitors to expand the array of molecules that could be used for CD8^+ T cell reprogramming. They implemented a screening approach that combined the evaluation of cytokine polyfunctionality of CD8^+ T cells (IFN-γ+TNFα+) vs the activation of mTORC1 and mTORC2 pathways (pS6+pAKT+) upon treatment with the GSK3 inhibitors and subsequent polyclonal stimulation.
# [2] = test system: human CD8+ T cells; assay: Screening of GSK3 inhibitors: cytokine polyfunctionality (IFN-γ+TNF-α+) of CD8+ T cells after anti-CD3/anti-CD28 stimulation; type: cell-based; details: for Fold change in IFN-γ+ TNF-a+cells (relative to DMSO): 12 hs at optimal dose, washout, 48 hs anti-CD3/anti-CD28, symbols not defined; for IFN-γ+TNF-α+ cells (polyfunctionality) relative to vehicle control: FIG. 12A, in words
# Protocol: as §1, §2, §3, §4, §5
# [3] = test system: GSK3; details: cited from earlier work; for IC50: GSK3 inhibitor, review Front. Mol. Neurosci. 2011
# [4] = test system: human CD8+ T cells; assay: Screening of GSK3 inhibitors: markers and memory phenotypes by flow cytometry; type: cell-based
# Protocol: as §1, §2, §3, §4
# [5] = test system: CD8+ T cells from people without HIV; assay: In vitro reprogramming of bulk CD8+ T cells, phenotype without further stimulation; type: cell-based, human; details: BIO and TWS119 in parallel, 3 μM, 12 hs
# Protocol: FIG. 1. Induction of stem-like CD8^+ T cells with high survival capacity and polyfunctionality by in vitro reprogramming. A. CD8^+ T cells from people without HIV were incubated with medium, vehicle control, or a GSK3 inhibitor, for 12 hs and the phenotype was evaluated by flow cytometry. A representative donor from a total of 4 is shown. B. Frequencies of CD8^+ T cell subpopulations after each treatment. C. Fold change of CD8^+ T cell subpopulations after treatment with vehicle control or a GSK3 inhibitor, relative to medium alone condition (n=4). D. Expression of TCF-1 in CD8^+ T cell subpopulations (n=4). E. The expression of the indicated markers in cells pre-treated with vehicle control or a GSK3 inhibitor was evaluated by flow cytometry. The fold change in the expression induced by 48 hs anti-CD3/CD28 stimulation, relative to unstimulated cells, is shown (n=5). F. Left: Flow cytometry analysis of dead cells (Aqua Live/Dead^+) among total and T-bet+CD8^+ T cells. Right: Fold change in dead CD8^+ T cells induced by anti-CD3/CD28 stimulation, relative to the unstimulated condition (n=5). G. Frequencies of granzyme B^+, TL-2^+, IFN-γ^+, and TNF-α^+CD8^+ T cells after anti-CD3/CD28 stimulation. H. Expression of 1 to 4 functions in CD8^+ T cells after anti-CD3/CD28 stimulation (n=5). I. After reprogramming with the GSK3 inhibitor, CD8^+ T cells were stimulated for 48 hs with anti-CD3/CD28, followed by wash and resting for 5 days. Then, cells were restimulated for another 48 hs with anti-CD3/CD28. Left: Flow cytometry analysis of proliferating (CFSE dilution) CD8^+ T cells. Right: Frequencies of CD8^+ T cells with 0, 1-3 or ≥4 cell divisions (n=9). J. Frequency of the total HCMV pp65-specific CD8^+ T cell response (IFN-γ^+ or CD107a^+ or TNF-α^+), after vehicle control or GSK3 inhibitor treatment, followed by HCMV pp65 peptides stimulation for 6 hs (n=6). K. Frequencies of CD8^+ T cell subpopulations among HCMV pp65-specific CD8^+ T cells (n=6). L. Expression of IFN-γ, CD107a, and TNF-α in HCMV pp65-specific CD8^+ T cells (n=6). M. Frequency of the total HCMV pp65-specific CD8^+ T cell response after HCMV pp65 peptides stimulation for 6 days (n=6). *P<0.05; **P≤0.01. NS: Not statistically significant. TSCM: Stem cell memory; TCM: Central memory; TTM: Transitional memory; TEM: Effector memory; TTE: Terminal effector.
# FIG. 2. A. Flow cytometry gating strategy used to identify CD8^+ T cell subpopulations: Naïve, Stem cell memory (TSCM), Central memory (TCM), Transitional memory (TTM), Effector memory (TEM), and Terminal effector (TTE). B. Expression of CCR7, CD27 and TCF-1 in total CD8^+ T cells after treatment with vehicle control, or the GSK3 inhibitors BIO or TWS119, for 12 hs. The median fluorescence intensity of each marker is depicted. C. Fold change in TSCM, TCM and TEM cells induced by BIO or TWS119, relative to vehicle control (n=3 people without HIV). D. Fold change in T-bet^+ cells among TSCM and TCM induced by anti-CD3/CD28 stimulation, relative to vehicle control, in cells previously treated with vehicle control, BIO or TWS119 (n=3). E. Fold change in T-bet^+ cells among naïve/TSCM induced by anti-CD3/CD28 stimulation (0.2 and 1 μg/mL), relative to unstimulated cells, previous treatment with vehicle control or the GSK3 inhibitor (n=3). F. Fold change in T-bet^+ cells among each CD8^+ T cell subpopulation induced by anti-CD3/CD28+ICAM-1 stimulation, relative to unstimulated cells (n=5). G. Frequency of IL-2^+TNF-α^+ cells among each CD8^+ T cell subpopulation after anti-CD3/CD28+ICAM-1 stimulation (n=5). H. Correlation between the frequency of PD-1^+LAG-3^+TIM3^+TIGIT^+CD8^+ T cells and the proportion of CD8^+ T cells with ≥4 cell divisions after restimulation (n=6). I. After reprogramming with the GSK3 inhibitor, CD8^+ T cells were left unstimulated, stimulated once for 48 hs with anti-CD3/CD28, or stimulated twice with anti-CD3/CD28. The expression of T-bet in TCM and TTM cells is shown (n=5). *P<0.05. […]
# [6] = test system: GSK3; details: reference 42; cited from earlier work
# [7] = 12 hs at optimal dose, anti-CD3/anti-CD28 stimulation relative to unstimulated cells, symbols not defined
compound,measurement,setting,value
COc1ccc(CNC(=O)Nc2ncc([N+](=O)[O-])s2)cc1 [AR-A014418],frequency of pS6+pAKT+ cells / activation of mTORC pathway,[1],decreased
CN1CCN(S(=O)(=O)c2ccc(-c3cnc(N)c(C(=O)Nc4cccnc4)n3)cc2)CC1 [AZD 2858],Fold change in pS6+pAKT+cells (relative to DMSO),[1],+ +
same,Fold change in IFN-γ+ TNF-a+cells (relative to DMSO),[2],+ +
O=C1Cc2c([nH]c3ccc([N+](=O)[O-])cc23)-c2ccccc2N1 [Alsterpaullone],Fold change in % HLA+ CD38+,[4]; [7],− −
same,Fold change in pS6+pAKT+cells (relative to DMSO),[1],+ +
same,frequency of pS6+pAKT+ cells / activation of mTORC pathway,[1],activation of mTORC pathway
same,Fold change in IFN-γ+ TNF-a+cells (relative to DMSO),[2],+ +
same,IFN-γ+TNF-α+ cells (polyfunctionality) relative to vehicle control,[2],increased
"CC(=O)ON=C1C(=C2C(=O)Nc3cc(Br)ccc32)Nc2ccccc21 [Bio-acetoxime, 6-bromoindirubin-3′-acetoxime]",CD127+ T-bet− phenotype,"[4]; FIG. 12B, in words",preserved
same,"acquisition of T-bet, HLA-DR and CD38, PD-1 and LAG-3","[4]; FIG. 12B, in words",restrained
same,phenotype / profile promoted in CD8+ T cells,"[4]; FIG. 12B, in words",promoted a less-differentiated phenotype
same,frequency of pS6+pAKT+ cells / activation of mTORC pathway,[1],lower frequency
same,Fold change in IFN-γ+ TNF-a+cells (relative to DMSO),[2],+ +
same,IFN-γ+TNF-α+ cells (polyfunctionality) relative to vehicle control,[2],promoted
OCCCNc1cc(-c2ccnc(Nc3cccc(Cl)c3)n2)ccn1 [CGP 60474],Fold change in % HLA+ CD38+,[4]; [7],− −
NC1=N[C@H]2c3c([nH]c(Br)c3Br)C(=O)N3CCC[C@]23N1 [Dibromocantharelline],IC50,[3],3000 nM
CN1CC[C@H](c2c(O)cc(O)c3c(=O)cc(-c4ccccc4Cl)oc23)[C@H](O)C1 [Flavopiridol hydrochloride hydrate],Fold change in % HLA+ CD38+,[4]; [7],− −
same,Fold change in % Naive-TSCM,[4]; [7],− −
same,Fold change in % TCM,[4]; [7],− −
CN(C)CCCn1cc(C2=C(c3c[nH]c4ccccc34)C(=O)NC2=O)c2ccccc21 [GF 109203X],Fold change in % HLA+ CD38+,[4]; [7],− −
O=C([O-])[O-].[Li+].[Li+] [Lithium carbonate],Fold change in % HLA+ CD38+,[4]; [7],+ +
O[C@]12C=C(c3nccc4c3[nH]c3ccccc34)[C@@H]3CCN(CCCC/C=C\CC1)C[C@@]31C[C@@H]3/C=C\CCCCN3[C@H]12 [Manzamine A],IC50,[3],1500 nM
COc1ccc(-c2ocnc2C(=O)NCCCn2cncn2)cc1Cl [PF-04802367],Fold change in pS6+pAKT+cells (relative to DMSO),[1],+ +
same,frequency of pS6+pAKT+ cells / activation of mTORC pathway,[1],activation of mTORC pathway
same,Fold change in IFN-γ+ TNF-a+cells (relative to DMSO),[2],+ +
same,IFN-γ+TNF-α+ cells (polyfunctionality) relative to vehicle control,[2],increased
COc1ccc2c(c1)/C(=C/c1cnc[nH]1)C(=O)N2 [SU 9516],Fold change in % HLA+ CD38+,[4]; [7],+ +
same,Fold change in pS6+pAKT+cells (relative to DMSO),[1],+ +
same,frequency of pS6+pAKT+ cells / activation of mTORC pathway,[1],activation of mTORC pathway
same,Fold change in IFN-γ+ TNF-a+cells (relative to DMSO),[2],+ +
same,IFN-γ+TNF-α+ cells (polyfunctionality) relative to vehicle control,[2],increased
CN[C@@H]1C[C@H]2O[C@@](C)([C@@H]1OC)n1c3ccccc3c3c4c(c5c6ccccc6n2c5c31)C(=O)NC4 [Staurosporine],Fold change in % CD127+ T-bet−,[4],+
same,Fold change in % HLA+ CD38+,[4],−
same,Fold change in % LAG3+ PD1+,[4],−
same,Fold change in % TTM,[4],+
"Nc1cccc(-c2cc3c(Oc4cccc(O)c4)ncnc3[nH]2)c1 [TWS119, 3-[[6-(3-aminophenyl)-7H-pyrrolo[2,3-d]pyrimidin-4-yl]oxy]phenol]","CCR7, CD27, and TCF-1",[5]; FIG. 2B,induced
same,TEM cells,[5]; FIG. 2C,decrease
same,TSCM and TCM cells,[5]; FIG. 2C,increase
same,Wnt/β-catenin/TCF-1 pathway,[6],induce the activation
same,IC50,[3],0.6 to 7 nM
same,selectivity of inhibition of GSK3,[3],highly selective inhibitors
O=c1sn(-c2cccc3ccccc23)c(=O)n1Cc1ccccc1 [Tideglusib (NP031112)],"frequencies of CD127− T-bet+ cells, and LAG-3+ PD-1+ cells","[4]; FIG. 12B, in words",higher frequencies
same,phenotype / profile promoted in CD8+ T cells,"[4]; FIG. 12B, in words",promoted an effector-like profile
[Zn+2] [Zinc],IC50,[3],15000 nM
